{"source": "patent US20220202912A1", "about": "“Polypeptides in Preparation of Drugs for Treatment or Prevention of Rheumatoid Arthritis” (priority 2011, published 2022)", "key": {"TNF-α": {"test_system": "TNF-α", "assay": "in vivo imaging of TNF-α expression, carrageenan-induced TNF-luc mice", "parameters": "species or system BALB/c transgenic TNF-luc mice", "conditions": "Adalimumab 8 mg/kg, mPEG-SC20k-HM-3 20 mg/kg sc", "experimental": "At 8 time points, hour 0, hour 2, hour 4, hour 8, hour 12, hour 24, hour 48 and hour 72 after modeling, fluorescein is injected intraperitoneally into each group of mice. After the mice are lightly anesthetized with ether, the mice are fixed within 5-20 min and put into an in vivo imager, the imager is covered with an instrument lid, on-fluro and om-photo names in the desktop imaging interface of the computer are clicked, and the expose button is clicked to complete the fluorescence and white light photos of mice in vivo imaging. The specific imaging principle, operation steps, image processing and output are the same as those in the previous embodiment.\nIn vivo imaging results of mice are processed with Carestream Molecular Imaging Software 5.3, and the luminous area is used as the determination of results. The fluorescence areas of the groups after optimization are compared.\n(1) Imaging principle: Fluorescein substrate is injected intraperitoneally, and binds to luciferase carried on TNF-α protein to catalyze luminescence. Through the Luciferase fluorescent reporter group on TNF, the change of the fluorescence area in mice is observed, and the expression of TNF-α is evaluated, so as to evaluate the impact of mPEG-SC20k-HM-3 on the expression of TNF-α.\n(2) Operation steps: Start the Carestreama in vivo imager, open the MI software, click the Capture button, and set photographing conditions. In the on-flour fluorescence mode, set the parameters X Binning. 2 pixels, Y Binning. 2 pixels; Illumination Source: Multi-wavelength; f-stop: 2.50; field of view (FOV) (mm): 120; focal plane (mm): Tray. Excitation filter: 430 nm, emission filter: 535 nm; exposure time: 30s. Click the Expose button to photograph fluorescence. Under the om-photo name, set the parameters X Binning. 0 pixels, Y Binning. 0 pixels; Illumination Source: None; f-stop: 2.50; FOV (mm): 120; focal plane (mm): Tray. Excitation filter: 0 nm, emission filter: 0 nm; exposure time: 0.175 s. Click the Expose button to photograph white light.\n(3) Image processing and output: Analyze and adjust photos of fluorescence function imaging and white light structure imaging to the best, and the FOV is consistent. Click Window→Tie, Display→Invert, Image Display→overlay→Transparency for image stacking. In the image output process, in a navigation panel, click Annotation→Width/Heigh→Scale Analysis Image for setting, click Add Annotation Bar for adding a title, click Add Intensity Scale for adding a ruler, and set Horizontal, Size, Style, Number of Significant Dig, and Horizontal/Vertical Length. Output a picture in Tiff format."}, "[1]": {"test_system": "AIA transgenic TNF-luc mice", "assay": "adjuvant-induced arthritis in transgenic TNF-luc mice (swelling, scores, weight, HE staining)", "type": "in vivo, BALB/c transgenic TNF-luc mice", "parameters": "right ankle swelling / left ankle swelling / left toe swelling / right toe swelling / changes of weight (added value): unit not given here", "conditions": "Adalimumab 8 mg/kg", "experimental": "8 animals are randomly divided into 4 groups (n=2), a normal group, a model group, a positive drug group and a test group. On day 0, the initial left and right ankle thicknesses, initial left and right foot palm thicknesses and initial left and right toe thicknesses of each group of mice are measured. On day 0, 50 μL/mouse complete Freund's adjuvant is injected into the bottom of the left toe of each group of mice, and the treatment is started after secondary inflammation appears in the right foot of each group of mice on day 17. On day 17, the normal group and the model group are hypodermically injected with 0.9% normal saline (0.2 mL/20 g of body weight), once every 2 days, 7 times in total. The positive drug Adalimumab group is hypodermically injected with Adalimumab (8 mg/kg of body weight), once every 15 days, once in total. The test group is hypodermically injected with mPEG-SC20k-HM-3 (20 mg/kg of body weight), once every 2 days, 7 times in total. The treatment lasts for 15 days. Then, medication is stopped for observation for one week, and the mice are killed one week later.\nOn day 0, the initial ankle widths, foot palm widths and toe thicknesses of left and right feet are measured with a vernier caliper as initial values. Every 2 days, the left and right ankle widths, foot palm widths and toe thicknesses of each group of mice are measured separately with the vernier caliper, and compared with the initial values to calculate the changes in the swelling degree.\nThe joints of the mouse paw are observed with naked eyes, and the joints are scored every 2 days from day 17. Scoring is performed in terms of level 0 to level 4, 5 levels in total.\nAfter the secondary inflammation appears, systemic scoring is performed every 2 days.\nChanges of expression of TNF-α and IL-6 are analyzed by HE staining and immunohistochemistry in the ankle joint, spleen and thymus of the mice. Observation and photographing are performed under the FOVs of ×200 and ×400 times respectively, 5 FOVs are taken randomly for each picture, and data statistics is performed."}, "[2]": {"conditions": "0 d, before treatment (starts day 17), mPEG-SC20k-HM-3 20 mg/kg groups"}, "[3]": {"conditions": "1 d, before treatment (starts day 17), mPEG-SC20k-HM-3 20 mg/kg groups"}, "[4]": {"conditions": "3 d, before treatment (starts day 17), mPEG-SC20k-HM-3 20 mg/kg groups"}, "[5]": {"conditions": "6 d, before treatment (starts day 17), mPEG-SC20k-HM-3 20 mg/kg groups"}, "[6]": {"conditions": "9 d, before treatment (starts day 17), mPEG-SC20k-HM-3 20 mg/kg groups"}, "[7]": {"conditions": "12 d, before treatment (starts day 17), mPEG-SC20k-HM-3 20 mg/kg groups"}, "[8]": {"conditions": "16 d, before treatment (starts day 17), mPEG-SC20k-HM-3 20 mg/kg groups"}, "[9]": {"conditions": "17 d (treatment starts), mPEG-SC20k-HM-3 20 mg/kg sc"}, "[10]": {"conditions": "19 d, mPEG-SC20k-HM-3 20 mg/kg sc"}, "[11]": {"conditions": "22 d, mPEG-SC20k-HM-3 20 mg/kg sc"}, "[12]": {"conditions": "25 d, mPEG-SC20k-HM-3 20 mg/kg sc"}, "[13]": {"conditions": "28 d, mPEG-SC20k-HM-3 20 mg/kg sc"}, "[14]": {"conditions": "31 d, mPEG-SC20k-HM-3 20 mg/kg sc"}}, "note": "“And” between values parts separate entries of the source, which are not always exact repeats. Equal entries are not always repeated. Where no end group is shown, it is not given here.", "data": [{"substance": "mPEG-SC20k-Ile-Val-Arg-Arg-Ala-Asp-Arg-Ala-Ala-Val-Pro-Gly-Gly-Gly-Gly-Arg-Gly-Asp ({mPEG‑SC 20k}-IVRRADRAAVPGGGGRGD) [polypeptide III, No. 3]", "values": [{"measurement": "Fluorescence intensity (in vivo imaging)", "setting": "TNF-α; 0 h", "result": "10.851 ± 3.014 ×10^5"}, {"measurement": "Fluorescence intensity (in vivo imaging)", "setting": "TNF-α; 2 h", "result": "13.880 ± 5.266 ×10^5"}, {"measurement": "Fluorescence intensity (in vivo imaging)", "setting": "TNF-α; 4 h", "result": "11.926 ± 2.119 ×10^5"}, {"measurement": "Fluorescence intensity (in vivo imaging)", "setting": "TNF-α; 8 h", "result": "19.37±3.41 ×10^5 and 19.367 ± 3.408 ×10^5"}, {"measurement": "Fluorescence intensity (in vivo imaging)", "setting": "TNF-α; 12 h", "result": "18.65±9.09 ×10^5 and 18.653 ± 9.093 ×10^5"}, {"measurement": "Fluorescence intensity (in vivo imaging)", "setting": "TNF-α; 24 h", "result": "12.65±2.39 ×10^5 and 12.654 ± 2.390 ×10^5"}, {"measurement": "Fluorescence intensity (in vivo imaging)", "setting": "TNF-α; 48 h", "result": "14.37±6.24 ×10^5 and 14.037 ± 6.238 ×10^5"}, {"measurement": "Fluorescence intensity (in vivo imaging)", "setting": "TNF-α; 72 h", "result": "13.40±1.17 ×10^5 and 13.402 ± 1.171 ×10^5"}, {"measurement": "changes of weight (added value)", "setting": "[1]; [2]", "result": "0.00 ± 0.00"}, {"measurement": "left ankle swelling", "setting": "[1]; [2]", "result": "0.000 ± 0.000"}, {"measurement": "left foot (palm) swelling", "setting": "[1]; [2]", "result": "0.000 ± 0.000"}, {"measurement": "left toe swelling", "setting": "[1]; [2]", "result": "0.000 ± 0.000"}, {"measurement": "left ankle swelling", "setting": "[1]; [3]", "result": "0.188 ± 0.018"}, {"measurement": "left foot (palm) swelling", "setting": "[1]; [3]", "result": "0.163 ± 0.052"}, {"measurement": "left toe swelling", "setting": "[1]; [3]", "result": "0.255 ± 0.027"}, {"measurement": "changes of weight (added value)", "setting": "[1]; [4]", "result": "0.27 ± 0.06"}, {"measurement": "left ankle swelling", "setting": "[1]; [4]", "result": "0.204 ± 0.074"}, {"measurement": "left foot (palm) swelling", "setting": "[1]; [4]", "result": "0.174 ± 0.088"}, {"measurement": "left toe swelling", "setting": "[1]; [4]", "result": "0.225 ± 0.106"}, {"measurement": "changes of weight (added value)", "setting": "[1]; [5]", "result": "0.28 ± 0.25"}, {"measurement": "left ankle swelling", "setting": "[1]; [5]", "result": "0.265 ± 0.031"}, {"measurement": "left foot (palm) swelling", "setting": "[1]; [5]", "result": "0.207 ± 0.055"}, {"measurement": "left toe swelling", "setting": "[1]; [5]", "result": "0.261 ± 0.126"}, {"measurement": "changes of weight (added value)", "setting": "[1]; [6]", "result": "0.40 ± 0.39"}, {"measurement": "left ankle swelling", "setting": "[1]; [6]", "result": "0.251 ± 0.029"}, {"measurement": "left foot (palm) swelling", "setting": "[1]; [6]", "result": "0.224 ± 0.062"}, {"measurement": "left toe swelling", "setting": "[1]; [6]", "result": "0.260 ± 0.156"}, {"measurement": "changes of weight (added value)", "setting": "[1]; [7]", "result": "0.42 ± 0.66"}, {"measurement": "left ankle swelling", "setting": "[1]; [7]", "result": "0.265 ± 0.028"}, {"measurement": "left foot (palm) swelling", "setting": "[1]; [7]", "result": "0.228 ± 0.054"}, {"measurement": "left toe swelling", "setting": "[1]; [7]", "result": "0.303 ± 0.103"}, {"measurement": "changes of weight (added value)", "setting": "[1]; 15 d, before treatment (starts day 17), mPEG-SC20k-HM-3 20 mg/kg groups", "result": "0.67 ± 1.06"}, {"measurement": "left ankle swelling", "setting": "[1]; [8]", "result": "0.274 ± 0.020"}, {"measurement": "left foot (palm) swelling", "setting": "[1]; [8]", "result": "0.221 ± 0.041"}, {"measurement": "left toe swelling", "setting": "[1]; [8]", "result": "0.294 ± 0.092"}, {"measurement": "right ankle swelling", "setting": "[1]; [8]", "result": "0.024 ± 0.011"}, {"measurement": "right foot palm swelling", "setting": "[1]; [8]", "result": "0.007 ± 0.007"}, {"measurement": "right toe swelling", "setting": "[1]; [8]", "result": "0.015 ± 0.021"}, {"measurement": "joint index score", "setting": "[1]; [9]", "result": "7.50 ± 0.70"}, {"measurement": "whole body (systemic) score", "setting": "[1]; [9]", "result": "5.50 ± 0.70"}, {"measurement": "changes of weight (added value)", "setting": "[1]; [10]", "result": "0.97 ± 1.09"}, {"measurement": "left ankle swelling", "setting": "[1]; [10]", "result": "0.297 ± 0.005"}, {"measurement": "right ankle swelling", "setting": "[1]; [10]", "result": "0.019 ± 0.009"}, {"measurement": "right foot palm swelling", "setting": "[1]; [10]", "result": "0.010 ± 0.011"}, {"measurement": "changes of weight (added value)", "setting": "[1]; [11]", "result": "0.82 ± 0.57"}, {"measurement": "left ankle swelling", "setting": "[1]; [11]", "result": "0.252 ± 0.006"}, {"measurement": "right foot palm swelling", "setting": "[1]; [11]", "result": "0.003 ± 0.016"}, {"measurement": "changes of weight (added value)", "setting": "[1]; [12]", "result": "0.61 ± 0.72"}, {"measurement": "left ankle swelling", "setting": "[1]; [12]", "result": "0.219 ± 0.013"}, {"measurement": "left toe swelling", "setting": "[1]; [12]", "result": "0.292 ± 0.107"}, {"measurement": "right toe swelling", "setting": "[1]; [12]", "result": "0.015 ± 0.027"}, {"measurement": "changes of weight (added value)", "setting": "[1]; [13]", "result": "1.13 ± 0.18"}, {"measurement": "right ankle swelling", "setting": "[1]; [13]", "result": "0.021±0.013"}, {"measurement": "changes of weight (added value)", "setting": "[1]; [14]", "result": "1.15 ± 0.40"}, {"measurement": "left toe swelling", "setting": "[1]; [14]", "result": "0.270 ± 0.127"}, {"measurement": "HE staining of ankle joints: pathological symptoms vs model group", "setting": "[1]; mPEG-SC20k-HM-3 20 mg/kg", "result": "relieved to some extent"}]}]}
